In brackets after ≈: the same amount, converted by molar mass.

Data set [1] in a line: in vitro. The settings on record: SD, HW or BN, rat, plasma.
The nature of data set [2]: in vitro. The settings on record: hepatocytes.
Data set [3] is described as follows: in vitro. The settings on record: human.
Data set [4] is described as follows: physchem. As to conditions: octan-1-ol/water, pH 7.4, LogD7.4.
Data set [5] is described as follows: physchem. The settings on record: pH 7.4 buffer.
The nature of data set [6]: in vitro. The settings on record: human, plasma, PPB.

As for `CN(C)C(C)(C(=O)OC1CC[N+](C)(C)CC1)c1ccccc1` (stereo not given), the fraction unbound (usually free concentration divided by total concentration) at 5 h in data set [1] is 0.454. For the same compound, the hepatocyte CLint (commonly the capacity of the preparation to metabolise the compound, expressed as a volume cleared per time) in data set [2] was 16 µL/min/1e6 cells. Moreover, the intrinsic clearance (microsomal CLint) (usually the capacity of the preparation to metabolise the compound, expressed as a volume cleared per time) in data set [3] (microsomes) was under 3 µL/min/mg.

`Cc1ccc(S(=O)(=O)Nc2c(C(=O)N[C@@H](C)C(C)(C)C)c(C)nn2C2CCS(=O)(=O)CC2)cc1` gave a fraction unbound at 5 h in data set [1] of 0.258. In data set [2], this compound returned a hepatocyte CLint of 4 µL/min/1e6 cells. In addition, in data set [3] (microsomes), the intrinsic metabolic clearance (microsomal CLint) is under 3 µL/min/mg. Also, the logD (commonly the decadic logarithm of the distribution of all forms, ionised or not, between an organic phase and buffer at a given pH) in data set [4] was 0.25.

For `COc1ccc2c(Oc3ccc(CC(=O)Nc4cn(C)nc4C)c(OC)c3)ccnc2c1`, the thermodynamic solubility (commonly the concentration in solution at equilibrium with solid) in data set [5] was determined as 10.7 µM (≈ 4.63 µg/mL). In data set [6], this compound showed a fraction unbound at 5 h of 0.0111. This compound also yielded a hepatocyte CLint in data set [2] of 23.4 µL/min/1e6 cells. For the same compound, the microsomal CLint in data set [3] (liver microsomes) worked out at 24.6 µL/min/mg. In data set [4], this compound returned a logD of 3.5.

In data set [5], `CC(C)(C)NS(=O)(=O)c1cncc(-c2ccc3nc(N)nn3c2)c1` returned a solubility (thermodynamic) of 63.1 µM (≈ 21.9 µg/mL). Further, the unbound share (fraction unbound) at 5 h in data set [6] is 0.371. The intrinsic clearance (hepatocyte CLint) in data set [2] is 20 µL/min/1e6 cells. In addition, the microsomal CLint in data set [3] (microsomes) is under 3 µL/min/mg. Further, the logD in data set [4] was 1.41.

For the compound `O=C(Nc1nc2ccccc2[nH]1)c1ccccc1`, the fraction unbound at 5 h in data set [1] was 0.126. The hepatocyte CLint in data set [2] is over 150 µL/min/1e6 cells. In data set [3] (liver microsomes), this compound returned a microsomal CLint of 64 µL/min/mg.

With `Cc1cn([C@H]2CCCN([C@@H](CC(C)C)c3ccc(C(=O)O)c(Oc4cccc(Cl)c4)c3)C2)c(=O)[nH]c1=O`, the results for the free fraction (fraction unbound) at 5 h in data set [1] and in data set [6] were 0.016 and 0.0111, respectively. In data set [2], the hepatocyte CLint was 9.55 µL/min/1e6 cells. In data set [4], this compound registered a pH-dependent lipophilicity (logD) of 0.93.

With `Cc1nocc1C(=O)Nc1ccc(-c2ccccc2OC(F)(F)F)c(N)n1`, in data set [1], the fraction unbound at 5 h was 0.0366. Also, the hepatocyte CLint in data set [2] was 74.1 µL/min/1e6 cells. This compound registered an intrinsic metabolic clearance (microsomal CLint) in data set [3] (liver microsomes) of under 3 µL/min/mg. For the same compound, in data set [4], the log distribution coefficient (logD) was found to be 3.7.

As to `CC(C)(CCCCCOCCc1ccccc1)NCCc1ccc(O)c2nc(O)sc12`, the unbound share (fraction unbound) at 5 h in data set [1] is 0.0229. The compound also gave an intrinsic clearance (hepatocyte CLint) in data set [2] of 93 µL/min/1e6 cells. The same compound displayed an intrinsic clearance (microsomal CLint) in data set [3] (microsomes) of 48.7 µL/min/mg. Further, the logD in data set [4] was 2.92.

On to `CCOc1ccc(-n2c([C@@H](C)N(Cc3cccnc3)C(=O)Cc3ccc(OC(F)(F)F)cc3)nc3ncccc3c2=O)cc1`, for which the fraction unbound at 5 h in data set [1] was 0.0293; in data set [6], 0.0477. Further, the hepatocyte CLint in data set [2] is 20 µL/min/1e6 cells. This compound returned a log distribution coefficient (logD) in data set [4] of 3.7.

Take `O=C(NC1CC1)c1cn(-c2cccc(C#Cc3cccnc3)c2)c2ncccc2c1=O`: in data set [1], the unbound share (fraction unbound) at 5 h is 0.0082. In data set [2], this compound yielded a hepatocyte CLint of 29 µL/min/1e6 cells. The compound further registered a microsomal CLint in data set [3] (microsomes) of 7 µL/min/mg.

Consider `C[C@H](CO)n1ccc2c(NC(=O)Cc3ccc(Cl)c(C(F)(F)F)c3)cccc2c1=O`, for which the free fraction (fraction unbound) at 5 h in data set [1] was 0.0391. Further, the hepatocyte CLint in data set [2] was determined as 29 µL/min/1e6 cells. In data set [3] (liver microsomes), this compound had an intrinsic clearance (microsomal CLint) of under 3 µL/min/mg. In data set [4], this compound yielded a logD of 3.49.

On to `O=C(CC12CC3CC(CC(C3)C1)C2)Nc1cccc2c(=O)n(C(CO)CO)ccc12`, for which the fraction unbound at 5 h in data set [1] was 0.117. For the same compound, the hepatocyte CLint in data set [2] came out at 19 µL/min/1e6 cells. This compound came in with an intrinsic clearance (microsomal CLint) in data set [3] (liver microsomes) of 42 µL/min/mg. The compound further gave a logD in data set [4] of 2.62.

With `O=C(Nc1cccc(Cl)c1)c1ccccn1`, the unbound share (fraction unbound) at 5 h in data set [1] was 0.0488. The compound further had an intrinsic clearance (hepatocyte CLint) in data set [2] of over 150 µL/min/1e6 cells. Also, the pH-dependent lipophilicity (logD) in data set [4] was found to be 3.4.

The compound `COc1cc(NC(=O)c2ccccn2)ccc1Cl` showed a fraction unbound at 5 h in data set [1] of 0.0447. For the same compound, the intrinsic clearance (hepatocyte CLint) in data set [2] is over 150 µL/min/1e6 cells.

For `O=C(Nc1ccc(F)cc1)c1ccc(Cl)[n+]([O-])c1`, the solubility (thermodynamic) in data set [5] amounted to 355 µM (≈ 94.6 µg/mL). The compound further had a free fraction (fraction unbound) at 5 h in data set [6] of 0.465. Besides, the hepatocyte CLint in data set [2] came to 149 µL/min/1e6 cells. This compound registered a microsomal CLint in data set [3] (microsomes) of under 3 µL/min/mg. The logD in data set [4] stood at 1.38.

Compound `CCc1c2c(nc3ccc(O)cc13)-c1cc3c(c(=O)n1C2)COC(=O)[C@]3(O)CC` [7-ETHYL-10-HYDROXYCAMPTOTHECIN] showed a fraction unbound at 5 h in data set [1] of 0.0948. The same compound yielded a hepatocyte CLint in data set [2] of 24 µL/min/1e6 cells. For the same compound, in data set [3] (microsomes), the microsomal CLint was determined as 25.1 µL/min/mg. The compound also returned a logD in data set [4] of 1.6.

As for `CCc1cc2c(cc1N1CCC(N3CCOCC3)CC1)C(C)(C)c1[nH]c3cc(C#N)ccc3c1C2=O` [ALECTINIB], the fraction unbound at 5 h in data set [1] came to 0.5. In data set [2], the hepatocyte CLint stood at 5.01 µL/min/1e6 cells.

In the case of `COCC1=C(C(=O)O)N2C(=O)[C@@H](NC(=O)/C(=N\OC)c3csc(N)n3)[C@H]2SC1` [CEFPODOXIME], the fraction unbound at 5 h was 0.454 in data set [1] and 0.465 in data set [6]. Also, the hepatocyte CLint in data set [2] was under 3 µL/min/1e6 cells.

On to `C[C@@H]1C[C@H]2[C@@H]3CCC4=CC(=O)C=C[C@]4(C)[C@@]3(F)[C@@H](O)C[C@]2(C)[C@@]1(O)C(=O)CO` [DEXAMETHASONE], for which the thermodynamic solubility in data set [5] turned out to be 141 µM (≈ 55.5 µg/mL). In addition, the values for the fraction unbound at 5 h in data set [1] and in data set [6] were 0.126 and 0.285, respectively. The same compound displayed a hepatocyte CLint in data set [2] of 31 µL/min/1e6 cells. Also, the logD in data set [4] is 1.87.

`Cc1nc(-c2ccc(OCC(C)C)c(C#N)c2)sc1C(=O)O` [FEBUXOSTAT] showed a fraction unbound at 5 h in data set [1] of 0.0052. Further, the hepatocyte CLint in data set [2] amounted to 12.7 µL/min/1e6 cells. Also, the microsomal CLint in data set [3] (microsomes) is under 3 µL/min/mg. The logD in data set [4] came out at 0.94.

`CNCc1ccc(-c2[nH]c3cc(F)cc4c3c2CCNC4=O)cc1` [RUCAPARIB] displayed a solubility (thermodynamic) in data set [5] of 851 µM (≈ 275 µg/mL). The compound further had a fraction unbound at 5 h in data set [6] of 0.232. This compound also showed a hepatocyte CLint in data set [2] of 12 µL/min/1e6 cells. For the same compound, in data set [3] (microsomes), the intrinsic clearance (microsomal CLint) was found to be 5.5 µL/min/mg. The same compound yielded a log distribution coefficient (logD) in data set [4] of 1.17.
